Laboratory results as given in US4908360A, “1-aminoalkyl-3-oxysubstituted-4-aryl-1,3,4,5-tetr ahydro-2H-1,3-benzodiazepine-2-ones” (Hoechst-Roussel Pharmaceuticals Inc., priority 1988, dated 1990).

Key:
[1] = target: T1, nitrendipine binding (ventricle membranes) (Rattus norvegicus, UniProt P22002); assay: nitrendipine binding assay (calcium ion antagonism), [3H]-nitrendipine, rat heart ventricle membranes; design: species or system Male Wistar rats; details: 1 h, pH 7.4, 25° C., one hour; for Increase in [3H]-nitrendipine binding (%) at 20 µM: concentration 2.0 (moles) × 10^-5
T1 construct: These resuspension and recentrifugation steps are repeated twice more to wash the ventricle membranes; from tissue; host or cells: heart ventricle membranes of male Wistar rats
Procedure: The compounds of the present invention are also useful as calcium ion antagonists which are useful to control cardiovascular activities, including potential antihypertensive activity. Calcium ion antagonism is measured in the nitrendipine binding assay.
The nitrendipine binding assay is carried out in the following manner. The reagents employed are (1) 0.5 M tris Buffer, pH 7.4, prepared by combining 66.1 g of Tris HCl, 9.7 g of Tris base in 1 liter of distilled water and thereafter making a 1:10 dilution in distilled water; (2) [5-methyl-^3H]-Nitrendipine (70-81 Ci/mmol, obtained from New England Nuclear; and (3) Nifedipine. Tissue is prepared as follows. Male Wistar rats are killed by decapitation, hearts are removed and the ventricles are dissected away from the aorta and aortic tissue. The ventricles are rinsed and homogenized in 19 volumes of ice-cold 0.05 M Tris buffer, pH 7.4 using a Tekmar homogenizer. The homogenate is filtered through four layers of cheese cloth and centrifuged at 1,000 g for 10 minutes. The supernatant is decanted and recentrifuged at 48,000 g for 20 minutes. The resulting pellet is resuspended in the original volume of Tris buffer and recentrifuged at 48,000 g for 20 minutes. These resuspension and recentrifugation steps are repeated twice more to wash the ventricle membranes. The final pellet is resuspended in the original volume of 0.05 M Tris buffer. The assay itself employs 500 ul of ventricle membrane suspension; 50 ul of 0.5 M Tris buffer, pH 7.4; […] [^3 H]-nitrendipine; 20 μl of candidate drug; 380 μl of water in a test tube and is carried out in a darkened room. The test tubes are incubated for one hour at 25° C. […] The filters are washed three times with 5 ml of ice-cold 0.05 M Tris buffer, pH 7.4 and counted in 10 ml of Liquiscint scintillation cocktail. Specific binding is determined by the difference of total binding and binding in the presence of 0.1 μM nifedipine and is roughly 70-75% of the total binding. […] IC50 values for the competing drug are calculated by log-probit analysis of the data.

[2] = system: 2-phenyl-1,4-benzoquinone-induced writhing in mice; assay: 2-phenyl-1,4-benzoquinone-induced writhing test in mice (analgesia); format: in vivo; details: subcutaneous
From the text: Compounds of the present invention are useful as analgesic agents due to their ability to alleviate pain in mammals. […] Exptl. Biol. Med. 95,729 (1957)].

T1 sequence (P22002 whole entry, other chains not shown): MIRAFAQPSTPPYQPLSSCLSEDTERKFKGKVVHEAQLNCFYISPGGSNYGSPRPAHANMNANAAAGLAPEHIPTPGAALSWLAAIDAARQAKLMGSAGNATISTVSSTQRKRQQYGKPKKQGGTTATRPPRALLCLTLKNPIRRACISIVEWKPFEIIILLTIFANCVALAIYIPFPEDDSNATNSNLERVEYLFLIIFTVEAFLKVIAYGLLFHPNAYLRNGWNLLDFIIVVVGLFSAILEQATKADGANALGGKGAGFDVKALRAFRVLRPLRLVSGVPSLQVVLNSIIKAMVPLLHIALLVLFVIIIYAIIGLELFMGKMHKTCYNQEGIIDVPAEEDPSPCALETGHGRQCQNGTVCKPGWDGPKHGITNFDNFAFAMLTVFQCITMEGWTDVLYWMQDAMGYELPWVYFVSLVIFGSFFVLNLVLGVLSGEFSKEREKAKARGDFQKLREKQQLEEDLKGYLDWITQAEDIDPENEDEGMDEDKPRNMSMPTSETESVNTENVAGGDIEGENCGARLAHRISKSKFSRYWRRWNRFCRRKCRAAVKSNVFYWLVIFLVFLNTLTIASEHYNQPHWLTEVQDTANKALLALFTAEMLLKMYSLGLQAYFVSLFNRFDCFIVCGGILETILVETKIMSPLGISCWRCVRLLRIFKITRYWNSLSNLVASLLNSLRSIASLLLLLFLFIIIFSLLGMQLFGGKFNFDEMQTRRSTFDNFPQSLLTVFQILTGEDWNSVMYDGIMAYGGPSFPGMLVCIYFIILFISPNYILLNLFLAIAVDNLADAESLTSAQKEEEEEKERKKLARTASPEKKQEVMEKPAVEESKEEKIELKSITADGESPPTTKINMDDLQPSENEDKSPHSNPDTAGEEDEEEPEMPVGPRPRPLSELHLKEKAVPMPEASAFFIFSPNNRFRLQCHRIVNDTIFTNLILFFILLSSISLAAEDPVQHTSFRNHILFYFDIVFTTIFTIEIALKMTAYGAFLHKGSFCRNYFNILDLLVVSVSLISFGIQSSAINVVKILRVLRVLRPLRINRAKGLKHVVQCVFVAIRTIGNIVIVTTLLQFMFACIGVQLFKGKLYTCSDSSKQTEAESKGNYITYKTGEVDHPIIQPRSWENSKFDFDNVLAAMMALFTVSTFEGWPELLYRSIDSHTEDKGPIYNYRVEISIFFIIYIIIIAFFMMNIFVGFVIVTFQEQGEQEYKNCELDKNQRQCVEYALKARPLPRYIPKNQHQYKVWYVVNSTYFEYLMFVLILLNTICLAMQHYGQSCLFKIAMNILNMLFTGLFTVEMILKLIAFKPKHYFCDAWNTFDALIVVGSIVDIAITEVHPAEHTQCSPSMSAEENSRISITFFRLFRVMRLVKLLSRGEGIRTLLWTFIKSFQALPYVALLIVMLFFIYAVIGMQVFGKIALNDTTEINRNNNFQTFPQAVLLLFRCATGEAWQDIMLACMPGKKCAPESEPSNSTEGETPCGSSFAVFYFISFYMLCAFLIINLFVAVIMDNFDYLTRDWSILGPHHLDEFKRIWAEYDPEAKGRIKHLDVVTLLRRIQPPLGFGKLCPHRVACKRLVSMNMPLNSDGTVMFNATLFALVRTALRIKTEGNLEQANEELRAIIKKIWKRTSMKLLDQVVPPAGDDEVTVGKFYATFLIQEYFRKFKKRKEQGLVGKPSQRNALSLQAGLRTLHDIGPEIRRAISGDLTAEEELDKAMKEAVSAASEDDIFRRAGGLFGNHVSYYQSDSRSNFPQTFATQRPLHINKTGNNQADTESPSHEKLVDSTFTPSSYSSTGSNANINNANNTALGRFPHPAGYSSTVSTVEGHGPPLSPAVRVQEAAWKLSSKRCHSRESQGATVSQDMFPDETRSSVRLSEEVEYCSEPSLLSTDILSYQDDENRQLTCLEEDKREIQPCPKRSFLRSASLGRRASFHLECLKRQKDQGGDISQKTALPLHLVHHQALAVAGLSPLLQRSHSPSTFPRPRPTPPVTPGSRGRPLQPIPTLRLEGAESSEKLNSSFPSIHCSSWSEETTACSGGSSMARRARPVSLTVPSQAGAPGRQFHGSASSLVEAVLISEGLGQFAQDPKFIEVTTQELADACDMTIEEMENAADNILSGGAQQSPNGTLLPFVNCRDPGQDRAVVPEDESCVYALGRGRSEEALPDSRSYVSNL
T1 sequence (P54290 25-945 partner limits assumed, other chains not shown): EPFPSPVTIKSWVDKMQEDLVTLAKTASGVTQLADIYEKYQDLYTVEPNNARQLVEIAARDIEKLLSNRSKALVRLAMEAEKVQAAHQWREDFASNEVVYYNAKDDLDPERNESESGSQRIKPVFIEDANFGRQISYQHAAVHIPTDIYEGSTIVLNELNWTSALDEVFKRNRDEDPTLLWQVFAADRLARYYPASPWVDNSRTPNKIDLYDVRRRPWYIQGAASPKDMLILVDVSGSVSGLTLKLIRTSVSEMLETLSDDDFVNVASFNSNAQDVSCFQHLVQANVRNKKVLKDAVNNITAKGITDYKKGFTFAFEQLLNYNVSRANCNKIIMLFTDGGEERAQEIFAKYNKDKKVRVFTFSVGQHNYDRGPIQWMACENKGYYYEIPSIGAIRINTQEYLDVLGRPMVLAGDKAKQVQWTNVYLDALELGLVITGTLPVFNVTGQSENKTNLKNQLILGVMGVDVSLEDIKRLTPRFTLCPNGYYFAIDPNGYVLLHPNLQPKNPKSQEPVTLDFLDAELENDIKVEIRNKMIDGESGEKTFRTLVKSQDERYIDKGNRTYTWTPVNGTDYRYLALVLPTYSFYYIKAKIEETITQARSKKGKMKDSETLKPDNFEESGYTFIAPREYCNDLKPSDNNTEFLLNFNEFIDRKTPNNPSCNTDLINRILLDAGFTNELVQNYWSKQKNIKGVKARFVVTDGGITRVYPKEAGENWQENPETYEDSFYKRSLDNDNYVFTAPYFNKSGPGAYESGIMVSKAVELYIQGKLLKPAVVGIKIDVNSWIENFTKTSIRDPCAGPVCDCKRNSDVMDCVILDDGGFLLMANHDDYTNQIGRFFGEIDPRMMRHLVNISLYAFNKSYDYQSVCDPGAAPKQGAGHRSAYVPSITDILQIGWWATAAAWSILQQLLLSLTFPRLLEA
T1 sequence (P54290 946-1091 partner limits assumed, other chains not shown): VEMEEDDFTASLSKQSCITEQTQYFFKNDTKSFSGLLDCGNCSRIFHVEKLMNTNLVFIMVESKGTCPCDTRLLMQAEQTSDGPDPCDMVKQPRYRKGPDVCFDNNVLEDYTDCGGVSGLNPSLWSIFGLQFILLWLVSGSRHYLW

| Structure (SMILES) | Increase in [3H]-nitrendipine binding (%) at 20 µM [1] [%] | Inhibition in Writhing (%) ([2]; 20 mg/kg of body weight) | Inhibition in Writhing (%) ([2]; 15.1 mg/kg of body weight) | Increase in [3H]-nitrendipine binding (%) at 10 µM ([1]; concentration 1.0 (moles) × 10^-5, standard) [%] |
| --- | --- | --- | --- | --- |
| CON1C(=O)N(CCCN(C)C)c2ccccc2CC1c1ccccc1 (racemic) [(±) -1-[3-(N,N-Dimethylamino)propyl]-3-methoxy-4-phenyl-1,3,4,5-tetrahydro-2H-1,3-benzodiazepine-2-one] | 25.7 | 37 | – | – |
| CON1C(=O)N(CCN(C)C)c2ccccc2CC1c1ccccc1 (racemic) [(±) -1-[2-(N,N-dimethylamino)ethyl]-3-methoxy-4-phenyl-1,3,4,5-tetrahydro-2H-1,3-benzodiazepine-2-one] | 27.6 | 37 | – | – |
| CN1CC[C@@]23CCCC[C@@H]2[C@@H]1Cc1ccc(O)cc13 [dextrorphan, reference compound] | – | – | 50 | – |
| COc1ccc([C@@H]2Sc3ccccc3N(CCN(C)C)C(=O)[C@@H]2OC(C)=O)cc1 [diltiazem, reference compound] | – | – | – | 85 |
